These are literature values, as cited in patent publication US20150065545A1, “Transdermal Delivery of Anastrozole for Systemic Effect” (Professional Compounding Centers of America, priority 2013, published 2015).

The conditions of data set [1]: after the use of anastrozole for about 7 days.
The conditions of data set [2]: men with hormone disorders (elevated estradiol) prescribed anastrozole.

Consider `CC(C)(C#N)c1cc(Cn2cncn2)cc(C(C)(C)C#N)c1` [anastrozole, 1,3-benzenediacetonitrile, a, a, a′, a′-tetramethyl-5-(1H-1,2,4-triazol-1-ylmethyl)], for which the “increase of natural testosterone levels” value in data set [1] was not above 60%. The estradiol levels result in data set [2] is given as “significant decrease”.
